Series [1] relates to gross motor function. The series can be described thus: Rotorod, mouse (Table 8). The note with it: in vivo, po, Table 8, mouse. A general note: Falling from the rotarod earlier than controls is read as motor impairment.
In series [2] the test system is fully kindled (stage 5) seizures, hippocampal kindled rat. The series can be described thus: Hippocampal kindled rat model (focal seizures). To be noted: for suppression of fully kindled (stage 5) seizures compared to vehicle controls: <100 mg/kg i.p. In kind it is in vivo. An excerpt: Hippocampal Kindled Rat Test is designed to quantify the anti-convulsant effects of a test compound in the kindled rat model. Rats treated by i.p. injection.
The Kindled Rat is a model of temporal lobe epilepsy, which is the most common and drug-resistant type of adult focal epilepsy (Morimoto et al., 2004). […] This acquired hyper-responsiveness is called kindling and results not only in increased seizure responses but also in an elongation of the after-discharge duration seen on an EEC recording.
Electrodes are implanted into the hippocampus of anesthetized rats, which are then allowed to recover for one week. Following the rapid kindling protocol (Lothman and Williamson, Brain Res 1994, 649:71-84), the rats are stimulated with 200 jiA for 10 s, 50 Hz, every 30 minutes for six hours on alternate days until they are fully kindled (4-5 stimulus days). After one week of rest, the animals are given the same electrical stimulus which serves as a baseline. The animals are pretreated with the test compound (generally via i.p. injection) and then tested at various intervals. At each time point, the behavioral seizure score (BSS) and after-discharge duration (ADD) is recorded. The BSS's are scored according to the following criteria (Racine, Electroencephalogr Clin Neurophysiol 1972, 32:281-94): Stage 1—mouth and facial clonus; Stage 2—stage 1 plus head nodding; Stage 3—stage 2 plus forelimb clonus; Stage 4—stage 3 plus rearing; and Stage 5—stage 4 plus repeated rearing and falling.
The after discharge threshold (ADT) can also be measured in the kindled rat. The ADT is defined as the lowest current at which an after discharge of at least 4 s is elicited. […] The initial stimulation is conducted at an intensity of 20 uA with 10 uA increments every 1-2 min until an after discharge is elicited. Fifteen minutes after the pre-drug threshold determination, a single dose of the test substance is administered to two animals in a volume of 0.04 ml/10 g body weight. In this way the animals serves as its own control. The individual rat ADT is then determined at varying times (i.e., 0.25, 1, 2, and 4 hr) after drug administration.
Ability of a compound to block behavioral seizures and/or decrease the afterdischarge duration (ADD) in a hippocampal kindled rat model. The hippocampal kindled rat provides an experimental model of focal seizures that become secondarily generalized. This rat model is useful for not only identifying compounds effective against partial seizures, but also allows for the investigation of complex brain networks that may contribute to seizure spread and generalization from a focus. Moreover, of the various electrical kindling paradigms described in the literature, the hippocampal kindling model offers several distinct advantages for the routine screening and evaluation of potential anticonvulsant compounds. First, this model provides a temporal framework for assessing drug efficacy in a focal seizure model. Specifically, the refractory period of individual animals is sufficiently short to permit repeated stimulations over a short time span. Second, this kindled rat model can be employed to assess the ability of an investigational compound to block fully kindled seizures evoked by an electrical stimulus. Finally, the hippocampal kindled rat model can also be used to assess the ability of an investigational compound to elevate threshold to focal firing modulation by an investigational drug. Therefore, compounds with a subtle effect on focal seizure activity in the kindled rat are not likely to be overlooked in the threshold test, thereby making the hippocampal kindled rat a useful screen at the ETSP.
Animals are first surgically prepared for kindling acquisition. Adult, male Sprague-Dawley rats (275-300 g) are surgically implanted with bipolar electrodes. Briefly, a bipolar electrode is stereoaxically implanted into the ventral hippocampus (AP −3.6, ML −4.9, VD −5.0 from dura, incisor bar +5.0) under ketamine-xylazine anesthesia. […]

For series [3], the system named is gross motor function. The series can be described thus: Fixed speed rotorod, rat (gross motor function). To be noted: Sprague-Dawley, in vivo, po. As for the experimental part:
On the test day following a defined drug pretreatment period, rats received a maximal electroshock (150 mA, 0.2 s duration, 60 Hz) via corneal electrodes. Protection was defined as absence of a full tonic seizure within 10 s of stimulus delivery. Twenty minutes before the MES procedure, the animals were tested on a fixed speed rotorod (best score from 3 trials at 8 r.p.m, trial duration=60 s) to give an early assessment of drug effect on gross motor function.

Series [4] relates to maximal electroshock seizure. The series can be described thus: Maximal Electroshock Seizure (MES) rat model. It counts as in vivo. To be noted: po, 0.5 hour. As for the experimental part:
Male, Sprague-Dawley rats and CD-1 mice were used for all studies. All animals were allowed ad-lib access to food and water except during experiment. Animals were housed within an animal vivarium maintained under a 12 h light:dark cycle (lights on: 07:00 h), and all experiments were conducted in the animals light phase. For all experiments, animals were habituated to the vivarium for a minimum of 72 h before experimentation. The experimental procedures used in the present investigation were conducted under the Association for Assessment and Accreditation of Laboratory Animal Care (AAALAC) and the Canadian Council on Animal Care (CCAC) guidelines. All compounds were sonicated in 5% Tween 80® in saline or methylcellulose 0.5% (wgt/vol), using MC and sterile water and injected in a dose volume of 5 ml/kg or 10 ml/kg (rat), and 10 ml/kg (mouse). Drugs were administered by either the oral, intraperitoneal or intravenous route. Male Sprague-Dawley rats of body weight 80-100 g were used for these studies. Each experiment was conducted over 3 consecutive days. On day 1 and 2, each rat received a single electrical stimulus (150 mA, 0.2 s duration, 60 Hz) via corneal electrodes moistened with saline (Shock stimulator type 221: Harvard apparatus). […] Typically this reflected approximately 70-90% of the initial group. […] On the test day following a defined drug pretreatment period, rats received a maximal electroshock (150 mA, 0.2 s duration, 60 Hz) via corneal electrodes. Protection was defined as absence of a full tonic seizure within 10 s of stimulus delivery. Twenty minutes before the MES procedure, the animals were tested on a fixed speed rotorod (best score from 3 trials at 8 r.p.m, trial duration=60 s) to give an early assessment of drug effect on gross motor function.
(In general: The maximal electroshock test induces tonic seizures with an electrical stimulus.)

This note sets out measurements from patent publication US10604476B2, “Fluorinated amide derivatives and their uses as therapeutic agents” (Trillium Therapeutics Inc., priority 2015, dated 2020).

What is called ED50 is the dose that gives a 50% effect, or the effect in half of the subjects. As to `NC(=O)COc1cc(C(F)(F)F)cc(C(F)(F)F)c1` [I(F), 2-[3,5 bis(trifluoromethyl)-phenoxy]acetamide;], the ED50 at 0.5 hour with gross motor function [1] was greater than 130 mg/kg; with gross motor function [3], greater than 500 mg/kg. Also, the “suppression of fully kindled (stage 5) seizures compared to vehicle controls” value in series [2] is given as “dose related suppression”. The ED50 in series [4] is 18.4 mg/kg.
Turning to `C[C@@H](Oc1cc(Cl)cc(C(F)(F)F)c1)C(N)=O` [I(D), (2R)-2-[3-chloro-5-(trifluoromethyl)-phenoxy]propanamide], the ED50 at 0.5 hour in the series with gross motor function [1] was greater than 170 mg/kg; in the series on gross motor function [3], greater than 500 mg/kg. The results for the “Average Seizure” value in series [2] (20 mg/kg), in series [2] (40 mg/kg) and in series [2] (80 mg/kg) were 4.9, 2.5 and 1, respectively. Besides, the “N/F, number of animals active over the number tested” value in series [2] (20 mg/kg) is recorded as 1/8; in series [2] (40 mg/kg) it was 1/8; in series [2] (80 mg/kg), 5/8. In series [2], the “suppression of fully kindled (stage 5) seizures compared to vehicle controls” value is recorded as “dose related suppression”. In series [2] (hippocampal kindled rat, Example 8), the “EC50, reduction of seizure score (seizure severity)” value was 49.4 ± 1.47 mg/kg. In addition, in series [4], it took a dose of 22.7 mg/kg to reach the 50% effect level (ED50).
